Measurements taken from the supplement of paper PMC10307832.

Assays:
Experiment in all cases: relative viability (nuclei count vs DMSO), 5 days (fraction); higher = more cells survive
Bortezomib + Luminespib = compound: CC(C)C[C@H](NC(=O)[C@H](Cc1ccccc1)NC(=O)c1cnccn1)B(O)O [Bortezomib] + CCNC(=O)c1noc(-c2cc(C(C)C)c(O)cc2O)c1-c1ccc(CN2CCOCC2)cc1 [Luminespib] (partner 0.01 µM)
Method in brief: (§1)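 Lung cancer cell lines, seeded in 1536-well plates, were treated the following day by pin tool with a single drug or with five library-drug doses (not always all listed) in √10 steps on top of a fixed anchor-drug dose. Cells were fixed and nuclei stained in one step after 5 days, and nuclei were counted. Relative viability is the nuclei count for treated wells divided by that for vehicle wells, reported as medians of duplicate plates.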

Bortezomib + Alpelisib = compound: CC(C)C[C@H](NC(=O)[C@H](Cc1ccccc1)NC(=O)c1cnccn1)B(O)O [Bortezomib] + Cc1nc(NC(=O)N2CCC[C@H]2C(N)=O)sc1-c1ccnc(C(C)(C)C(F)(F)F)c1 [Alpelisib] (partner 2 µM)
Method in brief: as §1

[1] = compound: CC1=CC(=NN1)NC2=CC(=NC(=N2)/C=C/C3=CC=CC=C3)N4CCN(CC4)C + O=C(CCCCCCC(=O)Nc1ccccc1)NO [Vorinostat] (partner 1 µM)
Method in brief: as §1

Obatoclax + Pictilisib = compound: COC1=CC(c2cc3ccccc3[nH]2)=N/C1=C\c1[nH]c(C)cc1C [Obatoclax] + CS(=O)(=O)N1CCN(Cc2cc3nc(-c4cccc5[nH]ncc45)nc(N4CCOCC4)c3s2)CC1 [Pictilisib] (partner 1 µM)
Method in brief: as §1

| Cell Line | relative viability (Bortezomib + Luminespib; first compound 0.0002 µM) | relative viability (Bortezomib + Luminespib; first compound 0.000632 µM) | relative viability (Bortezomib + Luminespib; first compound 0.002 µM) | relative viability (Bortezomib + Luminespib; first compound 0.006325 µM) | relative viability (Bortezomib + Luminespib; first compound 0.02 µM) | relative viability (Bortezomib + Alpelisib; first compound 0.0002 µM) | relative viability (Bortezomib + Alpelisib; first compound 0.000632 µM) | relative viability (Bortezomib + Alpelisib; first compound 0.002 µM) | relative viability (Bortezomib + Alpelisib; first compound 0.006325 µM) | relative viability (Bortezomib + Alpelisib; first compound 0.02 µM) | relative viability ([1]; first compound 0.08 µM) | relative viability ([1]; first compound 0.253 µM) | relative viability ([1]; first compound 0.8 µM) | relative viability ([1]; first compound 2.53 µM) | relative viability ([1]; first compound 8 µM) | relative viability (Obatoclax + Pictilisib; first compound 0.01 µM) | relative viability (Obatoclax + Pictilisib; first compound 0.03162 µM) | relative viability (Obatoclax + Pictilisib; first compound 0.1 µM) | relative viability (Obatoclax + Pictilisib; first compound 0.3162 µM) | relative viability (Obatoclax + Pictilisib; first compound 1 µM) |
| --- | --- | --- | --- | --- | --- | --- | --- | --- | --- | --- | --- | --- | --- | --- | --- | --- | --- | --- | --- | --- |
| 201T | 1.03 | 1.01 | 1.09 | 0.745 | 0.215 | 1.03 | 0.993 | 0.975 | 0.951 | 0.31 | 1 | 1.13 | 0.997 | 0.879 | 0.449 | 0.679 | 0.648 | 0.741 | 0.678 | 0.687 |
| A549 |  |  |  |  |  | 0.769 | 0.706 | 0.756 | 0.055 | 0.0365 |  |  |  |  |  | 0.509 | 0.7 | 0.448 | 0.442 | 0.0671 |
| A-427 | 0.889 | 0.926 | 0.589 | 0.33 | 0.125 | 0.991 | 1.03 | 1.05 | 1.11 | 0.0762 | 0.943 | 0.904 | 0.822 | 0.334 | 0.212 | 0.727 | 0.698 | 0.593 | 0.719 | 0.615 |
| ABC-1 | 0.439 | 0.523 | 0.262 | 0.252 | 0.227 | 1 | 1.08 | 0.372 | 0.233 | 0.245 | 1.01 | 1.19 | 1.31 | 0.392 | 0.225 | 0.72 | 0.929 | 0.737 | 0.468 | 0.26 |
| BEN | 0.314 | 0.665 | 0.568 | 0.249 | 0.184 | 0.925 | 1.09 | 0.72 | 0.614 | 0.154 | 0.544 | 0.53 | 0.563 | 0.47 | 0.334 | 0.534 | 0.57 | 0.447 | 0.54 | 0.587 |
| CAL-12T | 0.121 | 0.447 | 0.412 | 0.599 | 0.105 | 1.26 | 1.05 | 1.11 | 0.175 | 0.115 | 0.686 | 0.573 | 0.639 | 0.428 | 0.126 | 0.395 | 0.472 | 0.396 | 0.223 | 0.395 |
| COR-L23 | 0.639 | 0.669 | 0.61 | 0.0526 | 0.058 | 0.825 | 0.698 | 0.444 | 0.0416 | 0.0432 | 0.417 | 0.446 | 0.195 | 0.0754 | 0.087 | 0.792 | 0.946 | 0.737 | 0.252 | 0.154 |
| COR-L 105 | 0.784 | 0.914 | 0.614 | 0.434 | 0.211 | 0.911 | 1.04 | 0.909 | 0.237 | 0.227 | 0.818 | 0.762 | 0.753 | 0.47 | 0.262 | 0.407 | 0.47 | 0.495 | 0.328 | 0.286 |
| Calu-6 |  |  |  |  |  | 0.961 | 1.01 | 1.04 | 0.123 | 0.0909 |  |  |  |  |  | 0.91 | 0.963 | 0.731 | 0.491 | 0.105 |
| ChaGo-K-1 | 0.577 | 0.554 | 0.683 | 0.356 | 0.169 |  |  |  |  |  | 0.799 | 0.8 | 0.613 | 0.343 | 0.186 | 0.77 | 0.504 |  | 0.675 | 0.877 |
| EBC-1 |  |  |  |  |  | 0.869 | 0.727 | 0.29 | 0.126 | 0.0969 |  |  |  |  |  | 0.376 | 0.284 | 0.257 | 0.214 | 0.177 |
| EKVX | 0.833 | 0.827 | 0.89 | 0.646 | 0.113 | 0.94 | 0.934 | 0.932 | 0.733 | 0.0816 | 0.702 | 0.82 | 0.794 | 0.571 | 0.289 | 0.426 | 0.427 | 0.507 | 0.41 | 0.355 |
| EMC-BAC-2 | 1.21 | 1.11 | 1.17 | 0.441 | 0.208 | 0.657 | 0.73 | 0.788 | 0.17 | 0.117 | 0.416 | 0.428 | 0.354 | 0.171 | 0.0976 | 0.539 | 0.559 | 0.521 | 0.522 | 0.51 |
| EPLC-272H | 0.36 | 0.143 | 0.217 | 0.148 | 0.115 |  |  | 1.09 | 0.943 | 0.115 | 0.472 | 0.488 | 0.401 | 0.141 | 0.0816 | 0.338 | 0.324 | 0.315 | 0.273 | 0.343 |
| H3255 | 0.765 | 0.856 | 1.02 | 0.386 | 0.271 | 0.688 | 0.696 | 0.479 | 0.156 | 0.163 | 0.746 | 0.834 | 0.872 | 0.831 | 0.525 | 0.476 | 0.491 | 0.572 | 0.456 | 0.434 |
| HARA | 0.718 | 0.77 | 0.607 | 0.0345 | 0.0465 | 0.808 | 0.673 | 0.949 | 0.0583 | 0.0865 | 0.545 | 0.689 | 0.459 | 0.26 | 0.0694 | 0.449 | 0.445 | 0.426 | 0.379 | 0.352 |
| HCC-15 | 0.322 | 0.343 | 0.405 | 0.0965 | 0.0909 | 0.845 | 0.911 | 0.833 | 0.307 | 0.0846 | 0.861 | 0.875 | 0.887 | 0.526 | 0.114 | 0.737 | 0.658 | 0.744 | 0.686 | 0.471 |
| HCC-44 | 0.983 | 0.984 | 0.585 | 0.187 | 0.197 | 0.831 | 0.776 | 0.84 | 0.0994 | 0.115 | 1.08 | 1.13 | 1.05 | 0.904 | 0.36 | 0.69 | 0.552 | 0.577 | 0.583 | 0.246 |
